Experimental data: patent publication US12071443B2, “Prolyl hydroxylase domain-containing protein (PHD) inhibitors and uses thereof” (Insilico Medicine IP Limited, priority 2021, dated 2024)

Columns and labels:
[1] = system: Caco2-HIF1α-HiBiT-clone-1 cells; experiment: Caco-2 HIF1α-HiBiT assay; assay type: cell-based; conditions: Homo sapiens, Caco-2; Caco2-HIF1α-HiBiT-clone-1 cells, 6 h incubation, luminescence; read-out: Caco2-HIF1α-HiBit assay - EC50
[2] = target: PHD2 (Homo sapiens, UniProt Q9GZT9); experiment: PHD2 enzymatic assay (AlphaScreen); assay type: biochemical; conditions: PHD2 enzyme, AlphaScreen, IC50 from % inhibition; read-out: PHD2
Sequence of PHD2 (Q9GZT9 whole entry): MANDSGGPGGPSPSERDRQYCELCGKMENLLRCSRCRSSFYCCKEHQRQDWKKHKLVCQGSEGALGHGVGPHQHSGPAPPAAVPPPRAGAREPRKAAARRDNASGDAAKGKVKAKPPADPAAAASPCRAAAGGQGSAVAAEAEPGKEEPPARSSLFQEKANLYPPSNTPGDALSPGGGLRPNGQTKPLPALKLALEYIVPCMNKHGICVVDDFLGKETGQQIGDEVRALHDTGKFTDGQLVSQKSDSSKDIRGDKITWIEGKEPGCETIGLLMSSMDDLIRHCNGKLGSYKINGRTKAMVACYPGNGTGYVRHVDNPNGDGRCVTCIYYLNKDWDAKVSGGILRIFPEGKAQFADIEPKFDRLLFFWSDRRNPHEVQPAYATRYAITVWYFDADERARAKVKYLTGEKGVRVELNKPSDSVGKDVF

| Compound | EC50 [1] [µM] | IC50 [2] [µM] |
| --- | --- | --- |
| COc1cc(C#N)ncc1CNC(=O)c1ncc2nc(N3CCOCC3)ccc2c1O [Example 32] | 10 to 100 | < 0.005 |
| CC(C)(C)OC(=O)NC1CN(c2ccc3c(O)c(C(=O)NCc4ccc(C#N)nc4)ncc3n2)C1 [Example 127] | < 2.5 | < 0.005 |
| CC(C)(C)OC(=O)N[C@H]1CC(=O)N(c2ccc3c(O)c(C(=O)NCc4ccc(C#N)nc4)ncc3n2)C1 [Example 143] | < 2.5 | < 0.005 |
| CN1CCN(c2ccc3c(O)c(C(=O)NCc4ccc(C#N)nc4)ncc3n2)CC1=O [Example 66] | 10 to 100 | < 0.005 |
| CC(C)(C)OC(=O)N[C@@H]1CN(c2ccc3c(O)c(C(=O)NCc4ccc(C#N)nc4)ncc3n2)C[C@@H]1F [Example 142] | 2.5 to 5 | 0.005 to 0.02 |
| CC(C)(C)OC(=O)N[C@H]1CCN(c2ccc3c(O)c(C(=O)NCc4ccc(C#N)nc4)ncc3n2)C1 [Example 125] | < 2.5 | < 0.005 |
| N#Cc1ccc(CNC(=O)c2ncc3nc(N4CCOC4=O)ccc3c2O)cn1 [Example 103] | 2.5 to 5 | < 0.005 |
| N#Cc1ccc([C@@H](CO)NC(=O)c2ncc3nc(N4CCOCC4)ccc3c2O)cn1 [Example 64] | 10 to 100 | 0.1 to 1 |
| CC(C)OC(=O)C1CCN(c2ccc3c(O)c(C(=O)NCc4ccc(C#N)nc4)ncc3n2)CC1 [Example 95] | 10 to 100 | < 0.005 |
| CC(C)OC(=O)N1CCN(c2ccc3c(O)c(C(=O)NCc4ccc(C#N)nc4)ncc3n2)CC1 [Example 138] | 2.5 to 5 | < 0.005 |
| COCCC(=O)N1CCN(c2ccc3c(O)c(C(=O)NCc4ccc(C#N)nc4)ncc3n2)CC1 [Example 73, N-((6-cyanopyridin-3-yl)methyl)-5-hydroxy-2-(4-(3-methoxypropanoyl)piperazin-1-yl)-1,7-naphthyridine-6-carboxamide] | 5 to 7.5 | < 0.005 |
| CN1CCN(c2ccc3c(O)c(C(=O)NCc4ccc(C#N)cc4Cl)ncc3n2)C[C@@H]1CO [Example 59, (R)—N-(2-chloro-4-cyanobenzyl)-5-hydroxy-2-(3-(hydroxymethyl)-4-methylpiperazin-1-yl)-1,7-naphthyridine-6-carboxamide] | 2.5 to 5 | < 0.005 |
| COC(=O)CC1CN(c2ccc3c(O)c(C(=O)NCc4ccc(C#N)nc4)ncc3n2)C1 [Example 152] | 2.5 to 5 | < 0.005 |
| C[C@@H]1CN(C(=O)OC(C)(C)C)CCN1c1ccc2c(O)c(C(=O)NCc3ccc(C#N)nc3)ncc2n1 [Example 150] | < 2.5 | < 0.005 |
| CC(NC(=O)c1ncc2nc(N3CCOCC3)ccc2c1O)c1ccc(C#N)nc1 (centres unmarked) [Example 21] | 10 to 100 | 0.02 to 0.1 |
| COC(=O)C1CN(c2ccc3c(O)c(C(=O)NCc4ccc(C#N)nc4)ncc3n2)C1 [Example 84] | 5 to 7.5 | < 0.005 |
| N#Cc1ccc(CNC(=O)c2ncc3nc(N4CCN(CCO)CC4)ccc3c2O)cn1 [Example 74] | 2.5 to 5 | < 0.005 |
| C[C@H](NC(=O)c1ncc2nc(N3CCOCC3)ccc2c1O)c1ccc(C#N)cc1 [Example 17] | 10 to 100 | 1 to 100 |
| COCCN1CCN(c2ccc3c(O)c(C(=O)NCc4ccc(C#N)nc4)ncc3n2)CC1 [Example 75] | 5 to 7.5 | < 0.005 |
